Measured values taken from patent publication US20210069230A1, “SYNERGISTIC DRUG COMBINATIONS PREDICTED FROM GENOMIC FEATURES AND SINGLE-AGENT RESPONSE PROFILES” (THE BROAD INSTITUTE, INC., priority 2018, published 2021).

Tests used:
[1] = test system: G402 and CJM cells overexpressing MGLL; assay: Lentiviral ORF overexpression, compound sensitivity (CellTiter-Glo, GR); assay type: cell-based; conditions: 72 hours
Method: (§1) Cell lines were taken from viably frozen stocks of the same original provenance as for CTRP and DepMap data, with identity confirmed by SNP-based DNA fingerprinting as described previously (12, 13, 39). Cell lines were propagated using the same media and culture conditions as for CTRPv2.0 experiments. […] For live-cell imaging, cells were plated into clear-bottom plates (Corning) and imaged on an IncuCyte S3 throughout the course of the experiment. For CellTiter-Glo experiments, the initial viability of a subset of plated cells was established at the same time as compound addition using CellTiter-Glo as described previously (24). […] DMSO- and D0-normalized concentration-response curves were generated using four-parameter nonlinear regression using the drc package in R (40). Biphasic curves were also fit and prioritized relative to standard four-parameter curves where appropriate using the BIC (Bayesian information criteria) metric. […] General-purpose optimization (Nelder-Mean algorithm) was used for single-agent fits, and the “model” option was used to predict variance. Overall significance was assessed using the bootstrapped meanR test (n=1000 iterations), and per-concentration significance using maxR, as described by the package authors.
Infection and selection were carried out according to GPP Viral Infection protocols, followed by cell seeding in 384-well plates for compound treatment or harvesting for Western blotting as described above.
Parental cell lines were virally transduced with cDNAs that constitutively overexpressed BCL2L1, AIFM2, or MGLL (in G402 and CJM cells); ABCB1 or MGMT (in WM2664 cells); SLC7A11 (in BT12 and G402 cells); MCL1 (in HCC1500 cells); or IRS2 (in T47D cells) and subsequently drug sensitivity was measured. To account for potential differences in growth rates and to distinguish between cytostatic and cytotoxic drug responses, the normalized growth rate inhibition (GR) metric was used to assess cell viability (FIG. 3A) (18).

HEC1A and SUIT2 cells = assay: CRISPR-Cas9 knockout of MGLL, GSK-J4 sensitivity; assay type: cell-based; conditions: 4 different sgRNAs
Method: Cas9 stably-infected HEC1A, MEWO, SUIT2, and WM2664 cells and sgRNAs (pXPR_BRD003 vector) targeting AIFM2, IRS2, MGLL, or control guides (non-cutting) were acquired from the GPP (FIG. 23). Cell line identities were confirmed to match parental cells using SNP fingerprinting. Virus was generated and infection carried out as described above. After puromycin selection (3 μg/mL for MEWO, 1.5 μg/mL for WM2664, 2 μg/mL for SUIT2 and HEC1A), cells were seeded in 384-well plates for compound treatment or harvested for Western blotting as described above.
Further, MGLL knockout in HEC1A cells was rescued by overexpression of MGLL when using an sgRNA that targeted MGLL across an intron-exon boundary and that therefore could not cut the MGLL ORF.

G402 cells = assay: Overexpression of MGLL WT or enzyme-dead MGLL S132A, GSK-J4 sensitivity; assay type: cell-based
Method: Cell lines were taken from viably frozen stocks of the same original provenance as for CTRP and DepMap data, with identity confirmed by SNP-based DNA fingerprinting as described previously (12, 13, 39). Cell lines were propagated using the same media and culture conditions as for CTRPv2.0 experiments. For drug-treatment assays, 1000 cells per well were plated into 30 or […], of media in 384-well plates. For live-cell imaging, cells were plated into clear-bottom plates (Corning) and imaged on an IncuCyte S3 throughout the course of the experiment. For CellTiter-Glo experiments, the initial viability of a subset of plated cells was established at the same time as compound addition using CellTiter-Glo as described previously (24). Remaining cells were exposed to compounds and/or vehicle (constant DMSO volume) using a Tecan D300e Digital Dispenser, and CellTiter-Glo was added 72 hours later. DMSO- and D0-normalized concentration-response curves were generated using four-parameter nonlinear regression using the drc package in R (40). […] For calculation of drug combination effects, curves were fit and deviation from the null model (Loewe additivity) assessed using the BIGL package in R (reference: PMID 29263342) (41). […] Overall significance was assessed using the bootstrapped meanR test (n=1000 iterations), and per-concentration significance using maxR, as described by the package authors. […]

KMRC3 cells = assay: IncuCyte live-cell microscopy of cellular proliferation; assay type: cell-based
Method: as §1

MGLL = MGLL (Homo sapiens, UniProt Q99685); assay: Recombinant protein/mass spec assay of MGLL-mediated modification; assay type: biochemical
MGLL, sequence (Q99685 whole entry): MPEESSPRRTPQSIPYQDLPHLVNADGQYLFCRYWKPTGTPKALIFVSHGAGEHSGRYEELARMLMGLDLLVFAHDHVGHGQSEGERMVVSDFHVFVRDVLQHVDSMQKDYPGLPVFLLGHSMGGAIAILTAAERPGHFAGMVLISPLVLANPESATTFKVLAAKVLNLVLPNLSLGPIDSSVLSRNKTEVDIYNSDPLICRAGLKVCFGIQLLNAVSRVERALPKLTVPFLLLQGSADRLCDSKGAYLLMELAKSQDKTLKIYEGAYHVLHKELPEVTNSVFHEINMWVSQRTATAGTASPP
Excerpt: The GSK-J4-modifying impact of MGLL is examined further via a recombinant protein/mass spec assay.

[2] = cited from earlier work
[3] = test system: ATF4/metallothionein/ER stress; conditions: cited from earlier work

For `CCOC(=O)CCNc1cc(N2CCc3ccccc3CC2)nc(-c2ccccn2)n1` [GSK-J4], the “shift in GR50 conferred by MGLL overexpression” value [1] was 20 fold, the “effect of knockout of MGLL on response” value (HEC1A and SUIT2 cells) was “sensitize” and the “sensitivity of MGLL S132A overexpressing cells versus parental or control-infected cells” value (G402 cells; MGLL S132A) was “equally sensitive”. The “effect of MGLL WT overexpression” value (G402 cells; MGLL WT) was “significant resistance”, the “rescue of proliferation effects by MGLL” value (KMRC3 cells) was “durably rescued” and the “time at which effects on cell proliferation were observed” value (KMRC3 cells) was ≤ 12 h. The MGLL-mediated modification (MGLL) was “confirmed”, the cellular permeability [2] was “high cellular permeability” and the “time to induction of ATF4/metallothionein/ER stress” value [3] was ≤ 6 h.
